In PubChem BioAssay AID248 (DTP/NCI, 2004):
Several values for one entry are separate records, joined by “and”; a condition that tells them apart may be missing. Equal values may be shown once. Inconclusive results and toxic doses are left out.

Tested on: L1210 leukemia ip in BDF1 mice, survival T/C
Assay: NCI In Vivo Anticancer Drug Screen. Data for tumor model L1210 Leukemia (intraperitoneal) in B6D2F1 (BDF1) mice
Settings: endpoint: mean survival time, higher = longer survival
How it was run: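 Transplantable tumor model; survival measured in treated vs vehicle control mice. Value = treated/control.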

[1] = dose: 200.0 mg/kg/injection, schedule: Q04DX002 (ip), vehicle: Klucel (hydroxypropylcellulose) (HPC)
[2] = dose: 400.0 mg/kg/injection, schedule: Q04DX002 (ip), vehicle: Klucel (hydroxypropylcellulose) (HPC)
[3] = dose: 100.0 mg/kg/injection, schedule: Q01DX009 (ip), vehicle: Klucel (hydroxypropylcellulose) (HPC)
[4] = dose: 100.0 mg/kg/injection, schedule: Q01DX009 (ip), vehicle: saline with Tween-80
[5] = dose: 100.0 mg/kg/injection, schedule: Q04DX003 (ip), vehicle: saline with Tween-80
[6] = dose: 200.0 mg/kg/injection, schedule: Q01DX009 (ip), vehicle: Klucel (hydroxypropylcellulose) (HPC)
[7] = dose: 200.0 mg/kg/injection, schedule: Q04DX003 (ip), vehicle: saline with Tween-80
[8] = dose: 400.0 mg/kg/injection, schedule: Q01DX009 (ip), vehicle: Klucel (hydroxypropylcellulose) (HPC)
[9] = dose: 400.0 mg/kg/injection, schedule: Q01DX009 (ip), vehicle: saline with Tween-80
[10] = dose: 400.0 mg/kg/injection, schedule: Q04DX003 (ip), vehicle: saline with Tween-80
[11] = dose: 100.0 mg/kg/injection, schedule: Q01DX009 (ip), vehicle: saline
[12] = dose: 200.0 mg/kg/injection, schedule: Q01DX009 (ip), vehicle: saline
[13] = dose: 50.0 mg/kg/injection, schedule: Q01DX001 (ip), vehicle: saline
[14] = dose: 100.0 mg/kg/injection, schedule: Q04DX003 (ip), vehicle: saline
[15] = dose: 200.0 mg/kg/injection, schedule: Q04DX003 (ip), vehicle: saline
[16] = dose: 400.0 mg/kg/injection, schedule: Q04DX003 (ip), vehicle: saline
[17] = dose: 100.0 mg/kg/injection, schedule: Q01DX001 (ip), vehicle: saline
[18] = dose: 200.0 mg/kg/injection, schedule: Q01DX001 (ip), vehicle: saline

## CCN(C(=O)c1cccc(C(=O)N(CC)c2cccc(C)c2)c1)c1cccc(C)c1
dose: 100.0 mg/kg/injection, schedule: Q04DX002 (ip), vehicle: Klucel (hydroxypropylcellulose) (HPC)
  T/C: 94 % of control
[1]
  T/C: 91 % of control
[2]
  T/C: 91 % of control

## COc1ccc(C(=O)Nc2ccccc2)cc1[N+](=O)[O-]
[3]
  T/C: 96 % of control
[4]
  T/C: 101 % of control
[5]
  T/C: 101 % of control
[6]
  T/C: 98 % of control
dose: 200.0 mg/kg/injection, schedule: Q01DX009 (ip), vehicle: saline with Tween-80
  T/C: 94 % of control
[7]
  T/C: 97 % of control
[8]
  T/C: 98 % of control
[9]
  T/C: 86 % of control
[10]
  T/C: 101 % of control

## COC1OCC(O)C(NC(=O)N(C)N=O)C1O (stereo unspecified)
dose: 6.25 mg/kg/injection, schedule: Q01DX009 (ip), vehicle: saline
  T/C: 117 % of control
dose: 12.5 mg/kg/injection, schedule: Q01DX009 (ip), vehicle: saline
  T/C: 118 % of control
dose: 16.5 mg/kg/injection, schedule: Q04DX003 (ip), vehicle: saline
  T/C: 108 % of control
dose: 25.0 mg/kg/injection, schedule: Q01DX009 (ip), vehicle: saline
  T/C: 150 % of control and 154 % of control
dose: 27.3 mg/kg/injection, schedule: Q04DX003 (ip), vehicle: saline
  T/C: 112 % of control
dose: 33.0 mg/kg/injection, schedule: Q04DX003 (ip), vehicle: saline
  T/C: 118 % of control
dose: 37.5 mg/kg/injection, schedule: Q01DX009 (ip), vehicle: citric acid
  T/C: 152 % of control
dose: 75.0 mg/kg/injection, schedule: Q01DX009 (ip), vehicle: citric acid
  T/C: 185 % of control
[11]
  T/C: 177 % of control and 224 % of control
dose: 150.0 mg/kg/injection, schedule: Q04DX003 (ip), vehicle: saline
  T/C: 167 % of control
[12]
  T/C: 92 % of control

## CN=C(N)c1ccc(N=C(N)c2ccc(N=C(N)c3ccc(N)cc3)cc2)cc1
dose: 4.25 mg/kg/injection, schedule: Q01DX Z (ip), vehicle: water
  T/C: 112 % of control
dose: 8.5 mg/kg/injection, schedule: Q01DX Z (ip), vehicle: water
  T/C: 120 % of control
dose: 35.0 mg/kg/injection, schedule: Q01DX015 (ip), vehicle: saline
  T/C: 151 % of control
[13]
  T/C: 115 % of control
dose: 62.5 mg/kg/injection, schedule: Q01DX Z (oral), vehicle: water
  T/C: 101 % of control
dose: 125.0 mg/kg/injection, schedule: Q01DX Z (oral), vehicle: water
  T/C: 103 % of control
dose: 250.0 mg/kg/injection, schedule: Q01DX Z (oral), vehicle: water
  T/C: 102 % of control

## CCOC(=O)c1ccc(N2C(=O)C=CC2=O)cc1
[5]
  T/C: 96 % of control
[7]
  T/C: 98 % of control
[10]
  T/C: 89 % of control

## CCC1(CC)NC(=O)NC1=O
dose: 50.0 mg/kg/injection, schedule: Q04DX003 (ip), vehicle: saline
  T/C: 102 % of control
[11]
  T/C: 99 % of control
[14]
  T/C: 105 % of control
[12]
  T/C: 98 % of control
[15]
  T/C: 102 % of control
dose: 400.0 mg/kg/injection, schedule: Q01DX009 (ip), vehicle: saline
  T/C: 102 % of control
[16]
  T/C: 103 % of control

## O=C(Nc1cccc(C(F)(F)F)c1)Nc1ccc2sc(=S)[nH]c2c1
dose: 6.25 mg/kg/injection, schedule: Q01DX009 (ip), vehicle: saline with Tween-80
  T/C: 95 % of control
dose: 12.5 mg/kg/injection, schedule: Q01DX009 (ip), vehicle: saline with Tween-80
  T/C: 93 % of control
dose: 25.0 mg/kg/injection, schedule: Q01DX009 (ip), vehicle: saline with Tween-80
  T/C: 93 % of control
dose: 50.0 mg/kg/injection, schedule: Q01DX009 (ip), vehicle: saline with Tween-80
  T/C: 86 % of control
[4]
  T/C: 86 % of control
[9]
  T/C: 95 % of control

## COC1OC2COC(c3ccccc3)OC2C(OC(=S)SCc2ccccc2)C1OC(=O)c1ccccc1 (stereo unspecified)
dose: 25.0 mg/kg/injection, schedule: Q04DX002 (ip), vehicle: saline
  T/C: 100 % of control
dose: 50.0 mg/kg/injection, schedule: Q04DX002 (ip), vehicle: saline
  T/C: 88 % of control
dose: 100.0 mg/kg/injection, schedule: Q04DX002 (ip), vehicle: saline
  T/C: 98 % of control
[1]
  T/C: 86 % of control
[2]
  T/C: 90 % of control

## BrC1(C2(Br)N(c3ccccc3)CCN2c2ccccc2)N(c2ccccc2)CCN1c1ccccc1
dose: 7.5 mg/kg/injection, schedule: Q01DX001 (ip), vehicle: saline
  T/C: 105 % of control
dose: 7.5 mg/kg/injection, schedule: Q04DX003 (ip), vehicle: saline
  T/C: 108 % of control
dose: 15.0 mg/kg/injection, schedule: Q01DX001 (ip), vehicle: saline
  T/C: 105 % of control
dose: 15.0 mg/kg/injection, schedule: Q04DX003 (ip), vehicle: saline
  T/C: 106 % of control
dose: 30.0 mg/kg/injection, schedule: Q01DX001 (ip), vehicle: saline
  T/C: 112 % of control
dose: 30.0 mg/kg/injection, schedule: Q04DX003 (ip), vehicle: saline
  T/C: 100 % of control

## CC(C)(C)C[CH2][Hg][Cl]
dose: 6.25 mg/kg/injection, schedule: Q04DX003 (ip), vehicle: Klucel (hydroxypropylcellulose) (HPC)
  T/C: 92 % of control
dose: 12.5 mg/kg/injection, schedule: Q04DX003 (ip), vehicle: Klucel (hydroxypropylcellulose) (HPC)
  T/C: 94 % of control

## CCOP(=O)(OCC)Oc1ccccc1
[14]
  T/C: 91 % of control
[15]
  T/C: 92 % of control
[16]
  T/C: 94 % of control

## Cc1cccc2ccc3cccc(C)c3c12
[17]
  T/C: 98 % of control
[18]
  T/C: 92 % of control
dose: 400.0 mg/kg/injection, schedule: Q01DX001 (ip), vehicle: saline
  T/C: 95 % of control

## CC1(C)N=C(N)N=C(N)N1c1ccc2c(Cl)c(Cl)ccc2c1
dose: 50.0 mg/kg/injection, schedule: Q04DX003 (ip), vehicle: saline with Tween-80
  T/C: 106 % of control
[5]
  T/C: 107 % of control and 114 % of control
[7]
  T/C: 107 % of control

## O=C(O)C(CCCCC1CCCCC1)CCC1CCCCC1 (stereo unspecified)
dose: 100.0 mg/kg/injection, schedule: Q01DX001 (ip), vehicle: saline with Tween-80
  T/C: 97 % of control
dose: 200.0 mg/kg/injection, schedule: Q01DX001 (ip), vehicle: saline with Tween-80
  T/C: 99 % of control
dose: 400.0 mg/kg/injection, schedule: Q01DX001 (ip), vehicle: saline with Tween-80
  T/C: 94 % of control

## CSc1ccc(NC(=O)Oc2cc(C)ccc2C(C)C)cc1
dose: 50.0 mg/kg/injection, schedule: Q01DX009 (ip), vehicle: Klucel (hydroxypropylcellulose) (HPC)
  T/C: 94 % of control
[3]
  T/C: 100 % of control and 88 % of control
[6]
  T/C: 89 % of control
[8]
  T/C: 91 % of control

## CC(C)(O)C(I)C[n+]1ccccc1 (stereo unspecified)
dose: 50.0 mg/kg/injection, schedule: Q01DX009 (ip), vehicle: saline
  T/C: 107 % of control
dose: 88.0 mg/kg/injection, schedule: Q04DX003 (ip), vehicle: saline with Tween-80
  T/C: 124 % of control
[11]
  T/C: 110 % of control and 113 % of control
[5]
  T/C: 106 % of control
[14]
  T/C: 102 % of control and 111 % of control
dose: 133.0 mg/kg/injection, schedule: Q04DX003 (ip), vehicle: saline with Tween-80
  T/C: 119 % of control
dose: 175.0 mg/kg/injection, schedule: Q04DX003 (ip), vehicle: saline
  T/C: 106 % of control
[12]
  T/C: 117 % of control and 121 % of control
[7]
  T/C: 117 % of control
[15]
  T/C: 108 % of control
dose: 265.0 mg/kg/injection, schedule: Q04DX003 (ip), vehicle: saline
  T/C: 114 % of control
[16]
  T/C: 121 % of control
dose: 600.0 mg/kg/injection, schedule: Q04DX003 (ip), vehicle: saline
  T/C: 90 % of control

## Cc1ccc2c(c1)Oc1ccccc1S2
dose: 100.0 mg/kg/injection, schedule: Q04DX002 (ip), vehicle: saline with Tween-80
  T/C: 96 % of control
dose: 200.0 mg/kg/injection, schedule: Q04DX002 (ip), vehicle: saline with Tween-80
  T/C: 103 % of control
dose: 400.0 mg/kg/injection, schedule: Q04DX002 (ip), vehicle: saline with Tween-80
  T/C: 103 % of control

## O=C(O)CC(C(=O)O)c1ccccc1O (stereo unspecified)
dose: 25.0 mg/kg/injection, schedule: Q04DX003 (ip), vehicle: Klucel (hydroxypropylcellulose) (HPC)
  T/C: 95 % of control
[13]
  T/C: 100 % of control
dose: 50.0 mg/kg/injection, schedule: Q04DX003 (ip), vehicle: Klucel (hydroxypropylcellulose) (HPC)
  T/C: 93 % of control
[17]
  T/C: 96 % of control
[18]
  T/C: 90 % of control
